According to patent US9714244B2, “Substituted pyrido[4,3-d]pyrimidines as Wee-1 inhibitors” (ALMAC DISCOVERY LIMITED, priority 2013, dated 2017):

Legend:
PDGFRB (PDGFR beta) = PDGFRB (PDGFR beta) (Homo sapiens (Human), UniProt P09619); experiment: SelectScreen Kinase Profiling: PDGFRB; assay type: biochemical; settings: 300-350 nM
Wee-1 kinase = Wee-1 kinase (Homo sapiens (Human), UniProt P30291); experiment: Measurement of Wee-1 kinase activity (ADP-Glo); assay type: biochemical; settings: read-out: Wee-1 IC50 activity
CSNK2A1 (CK2 alpha 1) = CSNK2A1 (CK2 alpha 1) (Homo sapiens (Human), UniProt P68400); experiment: SelectScreen Kinase Profiling: CSNK2A1; assay type: biochemical; settings: 300-350 nM
Source text: (§1) Table 2 below highlights the selectivity of a representative compound of the invention against a panel of 50 kinases (assessed using the Invitrogen SelectScreen® Kinase Profiling Service).

JAK3 = JAK3 (Homo sapiens (Human), UniProt P52333); experiment: SelectScreen Kinase Profiling: JAK3; assay type: biochemical; settings: 300-350 nM
Sequence of JAK3 (P52333 whole entry): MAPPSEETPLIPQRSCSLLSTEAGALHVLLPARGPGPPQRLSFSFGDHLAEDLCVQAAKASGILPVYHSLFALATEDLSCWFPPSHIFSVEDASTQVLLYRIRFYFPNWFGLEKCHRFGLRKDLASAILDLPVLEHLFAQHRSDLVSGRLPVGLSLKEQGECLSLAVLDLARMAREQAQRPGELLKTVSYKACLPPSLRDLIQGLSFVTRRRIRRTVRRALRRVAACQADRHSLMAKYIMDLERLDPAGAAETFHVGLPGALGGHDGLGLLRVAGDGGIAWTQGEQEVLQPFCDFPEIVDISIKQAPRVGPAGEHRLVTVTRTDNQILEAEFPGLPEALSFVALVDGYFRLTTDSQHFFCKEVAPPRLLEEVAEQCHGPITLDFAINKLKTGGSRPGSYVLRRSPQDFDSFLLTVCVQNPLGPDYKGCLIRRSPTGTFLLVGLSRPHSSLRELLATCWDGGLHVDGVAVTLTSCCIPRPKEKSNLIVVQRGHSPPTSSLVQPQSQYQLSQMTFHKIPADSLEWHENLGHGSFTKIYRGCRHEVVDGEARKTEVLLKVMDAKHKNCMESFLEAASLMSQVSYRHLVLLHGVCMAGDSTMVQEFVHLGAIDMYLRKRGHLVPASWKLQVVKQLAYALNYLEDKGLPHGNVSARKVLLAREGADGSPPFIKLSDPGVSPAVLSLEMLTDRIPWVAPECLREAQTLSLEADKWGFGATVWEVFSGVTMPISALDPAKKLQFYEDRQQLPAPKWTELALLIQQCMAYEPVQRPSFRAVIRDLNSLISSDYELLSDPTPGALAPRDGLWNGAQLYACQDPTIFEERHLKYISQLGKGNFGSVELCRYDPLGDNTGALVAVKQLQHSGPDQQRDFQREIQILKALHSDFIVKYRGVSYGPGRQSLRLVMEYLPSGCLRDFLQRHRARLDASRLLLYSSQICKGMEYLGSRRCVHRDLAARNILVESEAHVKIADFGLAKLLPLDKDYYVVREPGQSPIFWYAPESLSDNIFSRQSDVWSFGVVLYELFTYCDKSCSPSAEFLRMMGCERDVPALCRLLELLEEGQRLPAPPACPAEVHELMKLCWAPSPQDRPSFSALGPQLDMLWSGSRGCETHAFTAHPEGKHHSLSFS
Source text: as §1

CDK1/cyclin B = CDK1/cyclin B (Homo sapiens (Human), UniProt P06493); experiment: SelectScreen Kinase Profiling: CDK1/cyclin B; assay type: biochemical; settings: 300-350 nM
Sequence of CDK1/cyclin B (P06493 whole entry): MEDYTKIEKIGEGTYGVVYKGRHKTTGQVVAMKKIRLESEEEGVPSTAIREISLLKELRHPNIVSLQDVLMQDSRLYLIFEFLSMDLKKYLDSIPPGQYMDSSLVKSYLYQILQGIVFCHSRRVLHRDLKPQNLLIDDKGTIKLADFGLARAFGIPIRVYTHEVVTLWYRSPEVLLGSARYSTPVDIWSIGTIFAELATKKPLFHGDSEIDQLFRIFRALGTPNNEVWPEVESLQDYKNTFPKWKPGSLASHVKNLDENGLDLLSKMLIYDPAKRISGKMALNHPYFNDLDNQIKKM
Sequence of CDK1/cyclin B (P14635 whole entry partner): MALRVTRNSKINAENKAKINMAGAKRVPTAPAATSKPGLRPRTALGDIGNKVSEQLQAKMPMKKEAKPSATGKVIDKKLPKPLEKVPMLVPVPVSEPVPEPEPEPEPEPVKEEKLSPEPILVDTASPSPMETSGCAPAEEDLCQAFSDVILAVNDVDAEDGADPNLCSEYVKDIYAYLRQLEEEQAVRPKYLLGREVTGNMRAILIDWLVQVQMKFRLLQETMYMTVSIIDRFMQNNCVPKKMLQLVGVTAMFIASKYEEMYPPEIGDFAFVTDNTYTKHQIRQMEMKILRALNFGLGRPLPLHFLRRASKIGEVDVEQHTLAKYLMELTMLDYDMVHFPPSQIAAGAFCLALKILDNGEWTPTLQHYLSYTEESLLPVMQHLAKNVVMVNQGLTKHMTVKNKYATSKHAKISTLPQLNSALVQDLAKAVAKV
Source text: as §1

NTRK1 (TRKA) = NTRK1 (TRKA) (Homo sapiens (Human), UniProt P04629); experiment: SelectScreen Kinase Profiling: NTRK1; assay type: biochemical; settings: 300-350 nM
Source text: as §1

MAPK14 (p38 alpha) = MAPK14 (p38 alpha) (Homo sapiens (Human), UniProt Q16539); experiment: SelectScreen Kinase Profiling: MAPK14; assay type: biochemical; settings: 300-350 nM
Source text: as §1

[1] = CLint estimates using human liver microsomes; assay type: in vitro ADME; settings: pH 7.4, read-out: HLM activity (HLM CLint)
AMPK A1/B1/G1 = AMPK A1/B1/G1 (Homo sapiens (Human), UniProt Q13131); experiment: SelectScreen Kinase Profiling: AMPK; assay type: biochemical; settings: 300-350 nM
Sequence of AMPK A1/B1/G1 (Q13131 whole entry): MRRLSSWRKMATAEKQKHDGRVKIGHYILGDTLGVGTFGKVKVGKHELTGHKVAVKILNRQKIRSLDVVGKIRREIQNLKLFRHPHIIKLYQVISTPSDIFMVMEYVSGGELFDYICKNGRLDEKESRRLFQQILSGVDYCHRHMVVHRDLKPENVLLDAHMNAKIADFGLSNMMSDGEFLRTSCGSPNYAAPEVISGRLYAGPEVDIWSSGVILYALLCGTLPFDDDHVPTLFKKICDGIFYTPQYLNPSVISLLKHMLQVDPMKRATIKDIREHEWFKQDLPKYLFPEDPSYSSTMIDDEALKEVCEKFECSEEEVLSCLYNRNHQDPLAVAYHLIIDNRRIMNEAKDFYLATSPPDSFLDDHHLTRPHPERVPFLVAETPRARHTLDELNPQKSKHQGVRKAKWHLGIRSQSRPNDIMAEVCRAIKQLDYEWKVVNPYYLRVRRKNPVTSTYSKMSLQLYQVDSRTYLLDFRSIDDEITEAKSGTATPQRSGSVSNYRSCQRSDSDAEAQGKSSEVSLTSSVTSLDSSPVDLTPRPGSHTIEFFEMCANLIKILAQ
Sequence of AMPK A1/B1/G1 (Q9Y478 whole entry partner): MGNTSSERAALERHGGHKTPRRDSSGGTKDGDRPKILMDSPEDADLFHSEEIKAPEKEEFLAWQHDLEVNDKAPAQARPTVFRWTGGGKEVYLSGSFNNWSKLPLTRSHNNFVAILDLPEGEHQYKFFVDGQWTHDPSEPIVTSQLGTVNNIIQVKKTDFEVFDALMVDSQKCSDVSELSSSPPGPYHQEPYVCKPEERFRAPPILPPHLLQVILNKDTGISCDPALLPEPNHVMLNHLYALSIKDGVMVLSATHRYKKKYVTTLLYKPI
Sequence of AMPK A1/B1/G1 (P54619 whole entry partner): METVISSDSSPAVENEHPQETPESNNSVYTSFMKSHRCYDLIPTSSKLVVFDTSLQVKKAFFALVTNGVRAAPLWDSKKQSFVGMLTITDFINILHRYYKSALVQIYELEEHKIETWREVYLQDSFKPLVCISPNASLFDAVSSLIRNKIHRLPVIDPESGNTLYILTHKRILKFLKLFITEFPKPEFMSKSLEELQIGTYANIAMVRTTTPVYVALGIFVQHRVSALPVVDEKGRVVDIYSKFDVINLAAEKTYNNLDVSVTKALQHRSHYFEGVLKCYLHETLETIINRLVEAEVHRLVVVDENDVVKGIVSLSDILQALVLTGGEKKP
Source text: as §1

PRKACA (PKA) = PRKACA (PKA) (Homo sapiens (Human), UniProt P17612); experiment: SelectScreen Kinase Profiling: PRKACA; assay type: biochemical; settings: 300-350 nM
Source text: as §1

MAPKAPK2 = MAPKAPK2 (Homo sapiens (Human), UniProt P49137); experiment: SelectScreen Kinase Profiling: MAPKAPK2; assay type: biochemical; settings: 300-350 nM
Source text: as §1

EPHA2 = EPHA2 (Homo sapiens (Human), UniProt P29317); experiment: SelectScreen Kinase Profiling: EPHA2; assay type: biochemical; settings: 300-350 nM
Source text: as §1

ABL1 = ABL1 (Homo sapiens (Human), UniProt P00519); experiment: SelectScreen Kinase Profiling: ABL1; assay type: biochemical; settings: 300-350 nM
Source text: as §1

PLK1 = PLK1 (Homo sapiens (Human), UniProt P53350); experiment: SelectScreen Kinase Profiling: PLK1; assay type: biochemical; settings: 300-350 nM
Source text: as §1

FRAP1 (mTOR) = FRAP1 (mTOR) (Homo sapiens (Human), UniProt P42345); experiment: SelectScreen Kinase Profiling: FRAP1; assay type: biochemical; settings: 300-350 nM
Source text: as §1

CSNK1G2 (CK1 gamma 2) = CSNK1G2 (CK1 gamma 2) (Homo sapiens (Human), UniProt P78368); experiment: SelectScreen Kinase Profiling: CSNK1G2; assay type: biochemical; settings: 300-350 nM
Source text: as §1

PIM1 = PIM1 (Homo sapiens (Human), UniProt P11309); experiment: SelectScreen Kinase Profiling: PIM1; assay type: biochemical; settings: 300-350 nM
Sequence of PIM1 (P11309 whole entry): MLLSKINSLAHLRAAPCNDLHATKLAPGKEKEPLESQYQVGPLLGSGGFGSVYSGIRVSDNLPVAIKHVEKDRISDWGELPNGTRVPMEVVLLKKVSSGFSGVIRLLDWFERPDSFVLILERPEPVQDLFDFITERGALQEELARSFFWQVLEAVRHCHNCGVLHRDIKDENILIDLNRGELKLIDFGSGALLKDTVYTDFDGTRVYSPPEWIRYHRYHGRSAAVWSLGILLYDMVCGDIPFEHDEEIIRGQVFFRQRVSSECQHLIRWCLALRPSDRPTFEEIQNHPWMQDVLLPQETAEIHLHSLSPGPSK
Source text: as §1

MAP2K1 (MEK1) = MAP2K1 (MEK1) (Homo sapiens (Human), UniProt Q02750); experiment: SelectScreen Kinase Profiling: MAP2K1; assay type: biochemical; settings: 300-350 nM
Source text: as §1

RPS6KB1 (p70S6K) = RPS6KB1 (p70S6K) (Homo sapiens (Human), UniProt P23443); experiment: SelectScreen Kinase Profiling: RPS6KB1; assay type: biochemical; settings: 300-350 nM
Source text: as §1

PAK4 = PAK4 (Homo sapiens (Human), UniProt O96013); experiment: SelectScreen Kinase Profiling: PAK4; assay type: biochemical; settings: 300-350 nM
Sequence of PAK4 (O96013 whole entry): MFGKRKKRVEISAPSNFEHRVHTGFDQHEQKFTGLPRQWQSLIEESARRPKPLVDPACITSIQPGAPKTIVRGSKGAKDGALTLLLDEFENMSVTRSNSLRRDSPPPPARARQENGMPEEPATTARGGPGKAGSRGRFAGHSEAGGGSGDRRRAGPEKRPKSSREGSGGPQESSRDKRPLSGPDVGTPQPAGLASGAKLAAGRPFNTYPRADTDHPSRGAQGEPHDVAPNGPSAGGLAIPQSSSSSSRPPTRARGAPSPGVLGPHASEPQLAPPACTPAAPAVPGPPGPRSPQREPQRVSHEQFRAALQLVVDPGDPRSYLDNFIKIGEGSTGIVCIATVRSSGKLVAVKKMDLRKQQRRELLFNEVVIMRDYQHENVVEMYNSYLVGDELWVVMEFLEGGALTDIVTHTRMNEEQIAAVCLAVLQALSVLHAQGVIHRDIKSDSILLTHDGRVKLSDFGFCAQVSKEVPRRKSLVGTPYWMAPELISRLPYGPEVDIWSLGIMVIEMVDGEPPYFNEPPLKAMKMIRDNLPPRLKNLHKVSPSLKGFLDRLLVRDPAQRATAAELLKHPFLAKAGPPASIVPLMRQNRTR
Source text: as §1

ERBB2 (HER2) = ERBB2 (HER2) (Homo sapiens (Human), UniProt P04626); experiment: SelectScreen Kinase Profiling: ERBB2; assay type: biochemical; settings: 300-350 nM
Source text: as §1

CHEK1 (CHK1) = CHEK1 (CHK1) (Homo sapiens (Human), UniProt O14757); experiment: SelectScreen Kinase Profiling: CHEK1; assay type: biochemical; settings: 300-350 nM
Source text: as §1

TEK (Tie2) = TEK (Tie2) (Homo sapiens (Human), UniProt Q02763); experiment: SelectScreen Kinase Profiling: TEK; assay type: biochemical; settings: 300-350 nM
Source text: as §1

IGF1R = IGF1R (Homo sapiens (Human), UniProt P08069); experiment: SelectScreen Kinase Profiling: IGF1R; assay type: biochemical; settings: 300-350 nM
Source text: as §1

Sequence of PDGFRB (PDGFR beta) (P09619 33-1106): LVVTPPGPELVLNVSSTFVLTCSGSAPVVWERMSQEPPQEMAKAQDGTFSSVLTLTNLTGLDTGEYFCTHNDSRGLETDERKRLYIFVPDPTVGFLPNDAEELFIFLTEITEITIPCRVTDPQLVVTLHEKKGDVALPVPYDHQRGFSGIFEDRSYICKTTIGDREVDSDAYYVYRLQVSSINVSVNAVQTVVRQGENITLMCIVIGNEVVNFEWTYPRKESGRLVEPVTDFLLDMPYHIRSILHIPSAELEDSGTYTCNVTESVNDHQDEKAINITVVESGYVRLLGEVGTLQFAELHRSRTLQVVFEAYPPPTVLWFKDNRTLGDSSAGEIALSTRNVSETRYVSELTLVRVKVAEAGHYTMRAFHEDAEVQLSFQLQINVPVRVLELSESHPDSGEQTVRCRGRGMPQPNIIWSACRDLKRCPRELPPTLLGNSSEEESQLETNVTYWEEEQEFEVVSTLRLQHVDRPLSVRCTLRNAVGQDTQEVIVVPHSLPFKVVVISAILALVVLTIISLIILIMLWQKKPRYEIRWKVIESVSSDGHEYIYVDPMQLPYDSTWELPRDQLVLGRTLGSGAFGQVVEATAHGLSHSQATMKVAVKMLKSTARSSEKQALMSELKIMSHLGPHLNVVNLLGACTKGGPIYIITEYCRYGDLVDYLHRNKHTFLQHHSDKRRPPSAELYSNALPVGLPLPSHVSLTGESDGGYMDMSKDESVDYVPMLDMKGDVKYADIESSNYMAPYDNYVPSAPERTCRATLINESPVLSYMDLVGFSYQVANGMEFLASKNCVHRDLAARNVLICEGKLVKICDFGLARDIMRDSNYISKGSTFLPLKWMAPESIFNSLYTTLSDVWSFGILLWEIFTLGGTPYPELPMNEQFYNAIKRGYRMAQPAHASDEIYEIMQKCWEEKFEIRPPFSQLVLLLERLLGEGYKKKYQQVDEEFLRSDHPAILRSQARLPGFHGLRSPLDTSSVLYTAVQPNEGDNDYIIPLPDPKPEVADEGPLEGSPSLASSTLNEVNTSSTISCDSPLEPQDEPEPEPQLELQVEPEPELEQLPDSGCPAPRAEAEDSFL

For O=c1c2cnc(Nc3ccc(N4CCNCC4)cc3)nc2ccn1-c1c(Cl)cccc1Cl [Example 1, 6-(2,6-Dichlorophenyl)-2-((4-(piperazin-1-yl)phenyl)amino)pyrido[4,3-d]pyrimidin-5(6H)-one], the “Inhibition PDGFRB (PDGFR beta)” value (PDGFRB (PDGFR beta)) was “− (Inhibition <75% @ 300-350 nM)”, the IC50 (Wee-1 kinase) was 0.01 to 0.2 µM and the “Inhibition CSNK2A1 (CK2 alpha 1)” value (CSNK2A1 (CK2 alpha 1)) was “− (Inhibition <75% @ 300-350 nM)”. For the same compound, the “Inhibition JAK3” value (JAK3) was “− (Inhibition <75% @ 300-350 nM)”, the “Inhibition CDK1/cyclin B” value (CDK1/cyclin B) was “− (Inhibition <75% @ 300-350 nM)” and the “Inhibition NTRK1 (TRKA)” value (NTRK1 (TRKA)) was “− (Inhibition <75% @ 300-350 nM)”. The “Inhibition MAPK14 (p38 alpha)” value (MAPK14 (p38 alpha)) was “− (Inhibition <75% @ 300-350 nM)”, the microsomal CLint at 1 μM [1] was ≤ 20 µL/min/mg and the “Inhibition AMPK A1/B1/G1” value (AMPK A1/B1/G1) was “− (Inhibition <75% @ 300-350 nM)”. The “Inhibition PRKACA (PKA)” value (PRKACA (PKA)) was “− (Inhibition <75% @ 300-350 nM)”, the “Inhibition MAPKAPK2” value (MAPKAPK2) was “− (Inhibition <75% @ 300-350 nM)” and the “Inhibition EPHA2” value (EPHA2) was “− (Inhibition <75% @ 300-350 nM)”. For the same compound, the “Inhibition ABL1” value (ABL1) was “+ (Inhibition >75% at 300-350 nM)”, the “Inhibition PLK1” value (PLK1) was “− (Inhibition <75% @ 300-350 nM)” and the “Inhibition FRAP1 (mTOR)” value (FRAP1 (mTOR)) was “− (Inhibition <75% @ 300-350 nM)”. The “Inhibition CSNK1G2 (CK1 gamma 2)” value (CSNK1G2 (CK1 gamma 2)) was “− (Inhibition <75% @ 300-350 nM)”, the “Inhibition PIM1” value (PIM1) was “− (Inhibition <75% @ 300-350 nM)” and the “Inhibition MAP2K1 (MEK1)” value (MAP2K1 (MEK1)) was “− (Inhibition <75% @ 300-350 nM)”. For the same compound, the “Inhibition RPS6KB1 (p70S6K)” value (RPS6KB1 (p70S6K)) was “− (Inhibition <75% @ 300-350 nM)”, the “Inhibition PAK4” value (PAK4) was “− (Inhibition <75% @ 300-350 nM)” and the “Inhibition ERBB2 (HER2)” value (ERBB2 (HER2)) was “− (Inhibition <75% @ 300-350 nM)”. For the same compound, the “Inhibition CHEK1 (CHK1)” value (CHEK1 (CHK1)) was “− (Inhibition <75% @ 300-350 nM)”, the “Inhibition TEK (Tie2)” value (TEK (Tie2)) was “− (Inhibition <75% @ 300-350 nM)” and the “Inhibition IGF1R” value (IGF1R) was “− (Inhibition <75% @ 300-350 nM)”.
